Laboratory results published in patent publication US20250382344A1, “Soluble GLP1/GIP/NPY2 Receptor Triple Agonists” (Boehringer Ingelheim International GmH, priority 2024, published 2025).
pEC50: −log10 of the molar value. Read-outs that look alike come from different tables or passages of the source.

Legend:
hGIPR = target: T1, hGIPR (Homo sapiens, UniProt P48546); assay: hGIPR CreLuc assay in 0.5% and 100% plasma (CHO CRE-luciferase reporter cells); format: cell-based; settings: 0.5% human plasma, read-out: hGIPR 0.5% hP
T1 construct: expressed in transfected cells; host or cells: CHO CRE-luciferase reporter cells
T1 sequence (P48546 22-466): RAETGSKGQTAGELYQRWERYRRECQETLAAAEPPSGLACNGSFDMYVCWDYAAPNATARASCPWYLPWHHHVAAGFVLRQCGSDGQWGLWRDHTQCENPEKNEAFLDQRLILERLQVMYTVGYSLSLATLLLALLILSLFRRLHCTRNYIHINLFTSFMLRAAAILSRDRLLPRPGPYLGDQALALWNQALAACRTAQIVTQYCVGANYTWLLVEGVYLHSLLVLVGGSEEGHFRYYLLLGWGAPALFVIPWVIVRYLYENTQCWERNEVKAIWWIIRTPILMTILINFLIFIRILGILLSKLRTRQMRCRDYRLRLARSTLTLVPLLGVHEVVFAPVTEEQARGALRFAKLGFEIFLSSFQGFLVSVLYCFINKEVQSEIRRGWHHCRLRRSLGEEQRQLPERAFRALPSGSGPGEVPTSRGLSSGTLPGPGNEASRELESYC

[1] = Solubility in 0.1 M phosphate buffer at pH 7; format: physicochemical; settings: 0.1 M phosphate buffer at pH 7, 10 mg/mL final peptide concentration, shaking 2 hours at room temperature, peptides as TFA-salts; measured sample pH 6.5-7.0
hGLP1R = target: T2, hGLP1R (Homo sapiens, UniProt P43220); assay: hGLP1R CreLuc assay in 0.5% and 100% plasma (HEK-293 CRE-luciferase reporter cells); format: cell-based; settings: HEK-293 reporter cells
T2 construct: expressed in transfected cells; host or cells: HEK-293 CRE-luciferase reporter cells

hNPY2R = target: T3, hNPY2R (Homo sapiens, UniProt P49146); assay: hNPY2R CreLuc assay in 0.5% and 100% plasma (HEK-293 CRE-luciferase reporter cells); format: cell-based; settings: HEK-293 reporter cells
T3 construct: expressed in transfected cells; host or cells: HEK-293 CRE-luciferase reporter cells
T3 sequence (P49146 1-381): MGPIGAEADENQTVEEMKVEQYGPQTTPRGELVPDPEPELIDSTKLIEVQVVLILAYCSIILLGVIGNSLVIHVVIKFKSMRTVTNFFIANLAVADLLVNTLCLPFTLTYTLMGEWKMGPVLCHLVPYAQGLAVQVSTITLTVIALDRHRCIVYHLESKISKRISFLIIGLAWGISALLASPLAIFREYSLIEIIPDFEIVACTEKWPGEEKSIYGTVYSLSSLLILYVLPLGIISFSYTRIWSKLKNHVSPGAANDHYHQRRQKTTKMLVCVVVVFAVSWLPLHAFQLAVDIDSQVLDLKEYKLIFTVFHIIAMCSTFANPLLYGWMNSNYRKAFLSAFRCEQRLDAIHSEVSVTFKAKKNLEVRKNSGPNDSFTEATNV

[2] = 0.5% human plasma, read-out: hGLP1R 0.5% hP
[3] = 100% human plasma, read-out: hNPY2R 100% hP
[4] = 0.5% human plasma, read-out: hNPY2R 0.5% hP

T2 sequence (P43220 24-463): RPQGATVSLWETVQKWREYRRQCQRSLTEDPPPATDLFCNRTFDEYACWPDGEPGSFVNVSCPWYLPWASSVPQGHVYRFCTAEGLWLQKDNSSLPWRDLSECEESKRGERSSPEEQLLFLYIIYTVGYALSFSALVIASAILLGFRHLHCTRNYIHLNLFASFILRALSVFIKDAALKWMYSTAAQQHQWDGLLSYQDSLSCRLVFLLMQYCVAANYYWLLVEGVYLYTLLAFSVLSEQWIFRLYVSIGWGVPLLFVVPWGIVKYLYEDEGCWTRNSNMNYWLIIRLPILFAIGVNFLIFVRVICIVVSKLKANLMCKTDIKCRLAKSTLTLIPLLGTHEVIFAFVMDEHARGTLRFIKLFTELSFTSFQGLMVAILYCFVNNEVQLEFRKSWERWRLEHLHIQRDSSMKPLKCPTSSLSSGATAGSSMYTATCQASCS

Compound	pEC50 (hGIPR)	solubility at 2 h [1]	pEC50 (hGLP1R; [2])	pEC50 (hGLP1R; 100% human plasma, read-out: hGLP1R 100% hP)	pEC50 (hNPY2R; [3])	pEC50 (hNPY2R; [4])
CC[C@H](C)[C@H](NC(=O)[C@H](CC(C)C)NC(=O)[C@H](Cc1c[nH]cn1)NC(=O)[C@H](CCCNC(=N)N)NC(=O)[C@@H](NC(=O)[C@H](Cc1ccccc1)NC(=O)[C@H](C)NC(=O)C(C)(C)NC(=O)[C@H](CCC(=O)O)NC(=O)[C@H](C)NC(=O)[C@H](CCC(N)=O)NC(=O)[C@H](CCCCN)NC(=O)[C@H](CCC(=O)O)NC(=O)[C@H](CC(C)C)NC(=O)[C@](C)(CC(C)C)NC(=O)[C@@H](NC(=O)[C@H](CO)NC(=O)[C@H](Cc1ccc(O)cc1)NC(=O)[C@H](CC(=O)O)NC(=O)[C@H](CO)NC(=O)[C@@H](NC(=O)[C@H](Cc1ccccc1)NC(=O)[C@@H](NC(=O)CNC(=O)[C@H](CCC(=O)O)NC(=O)C(C)(C)NC(=O)[C@@H](N)Cc1ccc(O)cc1)[C@@H](C)O)[C@@H](C)O)[C@@H](C)CC)C(C)C)C(=O)N[C@@H](CC(N)=O)C(=O)N[C@@H](CCCCNC(=O)[C@@H](N)CCCCNC(=O)CC[C@H](NC(=O)CC[C@H](NC(=O)CC[C@H](NC(=O)CC[C@H](NC(=O)CC[C@H](NC(=O)CC[C@H](NC(=O)CCCCCCCCCCCCCCCCCCC(=O)O)C(=O)O)C(=O)O)C(=O)O)C(=O)O)C(=O)O)C(=O)O)C(=O)NC(C)(C)C(=O)N[C@H](C(=O)N[C@@H](CCCNC(=N)N)C(=O)N[C@@H](CCC(N)=O)C(=O)N[C@@H](CCCNC(=N)N)C(=O)N[C@@H](Cc1ccc(O)cc1)C(N)=O)[C@@H](C)O [Compound 103, Y-Aib-E-G-T-F-T-S-D-Y-S-I-aMeL-L-E-K-Q-A-E-Aib-A-F-V-R-H-L-I-N-K(1,3)-Aib-T-R-Q-R-Y-NH2.C20DA-gGlu-gGlu-gGlu-gGlu-gGlu-gGlu-eLys(1,2)]	9.70	9700 µg/mL	9.40	9.22	6.88	
CC[C@H](C)[C@H](NC(=O)[C@H](CO)NC(=O)[C@H](Cc1ccc(O)cc1)NC(=O)[C@H](CC(=O)O)NC(=O)[C@H](CO)NC(=O)[C@@H](NC(=O)[C@H](Cc1ccccc1)NC(=O)[C@@H](NC(=O)CNC(=O)[C@H](CCC(=O)O)NC(=O)C(C)(C)NC(=O)[C@@H](N)Cc1ccc(O)cc1)[C@@H](C)O)[C@@H](C)O)C(=O)N[C@@H](CC(C)C)C(=O)N[C@@H](CC(C)C)C(=O)N[C@@H](CCC(=O)O)C(=O)N[C@@H](CCCCN)C(=O)N[C@@H](CCC(N)=O)C(=O)N[C@@H](C)C(=O)N[C@@H](CCC(N)=O)C(=O)NC(C)(C)C(=O)N[C@@H](C)C(=O)N[C@@H](Cc1ccccc1)C(=O)N[C@H](C(=O)N[C@@H](CCCNC(=N)N)C(=O)N[C@@H](Cc1c[nH]cn1)C(=O)N[C@@H](CC(C)C)C(=O)N[C@H](C(=O)N[C@@H](CC(N)=O)C(=O)N[C@@H](CCCCNC(=O)CC[C@H](NC(=O)CC[C@H](NC(=O)CC[C@H](NC(=O)CC[C@H](NC(=O)CC[C@H](NC(=O)CCCCCCCCCCCCCCCCC(=O)O)C(=O)O)C(=O)O)C(=O)O)C(=O)O)C(=O)O)C(=O)NC(C)(C)C(=O)N[C@H](C(=O)N[C@@H](CCCNC(=N)N)C(=O)N[C@@H](CCC(N)=O)C(=O)N[C@@H](CCCNC(=N)N)C(=O)N[C@@H](Cc1ccc(O)cc1)C(N)=O)[C@@H](C)O)[C@@H](C)CC)C(C)C [Compound 122, Y-Aib-E-G-T-F-T-S-D-Y-S-I-L-L-E-K-Q-A-Q-Aib-A-F-V-R-H-L-I-N-K(1,3)-Aib-T-R-Q-R-Y-NH2.C18DA-gGlu-gGlu-gGlu-gGlu-gGlu(1,2)]	10.00	3800 µg/mL	9.52			7.22
CC[C@H](C)[C@H](NC(=O)[C@H](CC(C)C)NC(=O)[C@H](Cc1c[nH]cn1)NC(=O)[C@H](CCCNC(=N)N)NC(=O)[C@@H](NC(=O)[C@H](Cc1ccccc1)NC(=O)[C@H](C)NC(=O)C(C)(C)NC(=O)[C@H](CCC(N)=O)NC(=O)[C@H](C)NC(=O)[C@H](CCC(N)=O)NC(=O)[C@H](CCCCN)NC(=O)[C@H](CCC(=O)O)NC(=O)[C@H](CC(C)C)NC(=O)C(C)(C)NC(=O)[C@@H](NC(=O)[C@H](CO)NC(=O)[C@H](Cc1ccc(O)cc1)NC(=O)[C@H](CC(=O)O)NC(=O)[C@H](CO)NC(=O)[C@@H](NC(=O)[C@H](Cc1ccccc1)NC(=O)[C@@H](NC(=O)CNC(=O)[C@H](CCC(=O)O)NC(=O)C(C)(C)NC(=O)[C@@H](N)Cc1ccc(O)cc1)[C@@H](C)O)[C@@H](C)O)[C@@H](C)CC)C(C)C)C(=O)N[C@@H](CC(N)=O)C(=O)N[C@@H](CCCCNC(=O)[C@@H](N)CCCCNC(=O)CC[C@H](NC(=O)CC[C@H](NC(=O)CC[C@H](NC(=O)CC[C@H](NC(=O)CC[C@H](NC(=O)CC[C@H](NC(=O)CCCCCCCCCCCCCCCCC(=O)O)C(=O)O)C(=O)O)C(=O)O)C(=O)O)C(=O)O)C(=O)O)C(=O)NC(C)(C)C(=O)N[C@H](C(=O)N[C@@H](CCCNC(=N)N)C(=O)N[C@@H](CCC(N)=O)C(=O)N[C@@H](CCCNC(=N)N)CC(=O)N[C@@H](Cc1ccc(O)cc1)C(N)=O)[C@@H](C)O [Compound 146, Y-Aib-E-G-T-F-T-S-D-Y-S-I-Aib-L-E-K-Q-A-Q-Aib-A-F-V-R-H-L-I-N-K(1,3)-Aib-T-R-Q-bhArg-Y-NH2.C18DA-gGlu-gGlu-gGlu-gGlu-gGlu-gGlu-eLys(1,2)]	9.70	5000 µg/mL	9.00		7.05	
CC[C@H](C)[C@H](NC(=O)[C@H](CC(C)C)NC(=O)[C@H](Cc1ccc(O)cc1)NC(=O)[C@H](CCCNC(=N)N)NC(=O)[C@@H](NC(=O)[C@H](Cc1ccccc1)NC(=O)[C@H](C)NC(=O)C(C)(C)NC(=O)[C@H](CCC(N)=O)NC(=O)[C@H](C)NC(=O)[C@H](CCC(N)=O)NC(=O)[C@H](CCCCN)NC(=O)[C@H](CC(=O)O)NC(=O)[C@H](CC(C)C)NC(=O)C(C)(C)NC(=O)[C@@H](NC(=O)[C@H](CO)NC(=O)[C@H](Cc1ccc(O)cc1)NC(=O)[C@H](CC(=O)O)NC(=O)[C@H](CO)NC(=O)[C@@H](NC(=O)[C@H](Cc1ccccc1)NC(=O)[C@@H](NC(=O)CNC(=O)[C@H](CCC(=O)O)NC(=O)C(C)(C)NC(=O)[C@@H](N)Cc1ccc(O)cc1)[C@@H](C)O)[C@@H](C)O)[C@@H](C)CC)C(C)C)C(=O)N[C@@H](CC(N)=O)C(=O)N[C@@H](CCCCNC(=O)[C@@H](N)CCCCNC(=O)CC[C@H](NC(=O)CC[C@H](NC(=O)CC[C@H](NC(=O)CC[C@H](NC(=O)CC[C@H](NC(=O)CC[C@H](NC(=O)CCCCCCCCCCCCCCCCC(=O)O)C(=O)O)C(=O)O)C(=O)O)C(=O)O)C(=O)O)C(=O)O)C(=O)NC(C)(C)C(=O)N[C@H](C(=O)N[C@@H](CCCNC(=N)N)C(=O)N[C@@H](CCC(N)=O)C(=O)N[C@@H](CCCNC(=N)N)C(=O)N[C@@H](Cc1ccc(O)cc1)C(N)=O)[C@@H](C)O [Compound 153, Y-Aib-E-G-T-F-T-S-D-Y-S-I-Aib-L-D-K-Q-A-Q-Aib-A-F-V-R-Y-L-I-N-K(1,3)-Aib-T-R-Q-R-Y-NH2.C18DA-gGlu-gGlu-gGlu-gGlu-gGlu-gGlu-eLys(1,2)]	10.00	8200 µg/mL	10.00			7.40
